In patent US9512126B2, “Substituted imidazopyridazines” (Bayer Intellectual Property GmbH, priority 2012, dated 2016):

target: human kinase Mps-1 (Homo sapiens (Human), UniProt P33981); test: Mps-1 kinase assay (TR-FRET); type: biochemical; settings: N-terminally GST-tagged human full length recombinant Mps-1, 10 μM ATP
Protocol: The human kinase Mps-1 phosphorylates a biotinylated substrate peptide. Detection of the phosphorylated product is achieved by time-resolved fluorescence resonance energy transfer (TR-FRET) from Europium-labelled anti-phospho-Serine/Threonine antibody as donor to streptavidin labelled with cross-linked allophycocyanin (SA-XLent) as acceptor. Compounds are tested for their inhibition of the kinase activity.
N-terminally GST-tagged human full length recombinant Mps-1 kinase (purchased from Invitrogen, Karslruhe, Germany, cat. no PV4071) was used. As substrate for the kinase reaction a biotinylated peptide of the amino-acid sequence […] (C-terminus in amide form, purchased from Biosynthan GmbH, Berlin) was used.
The concentration of Mps-1 in the assay was adjusted to the activity of the enzyme lot and was chosen appropriate to have the assay in the linear range, typical enzyme concentrations were in the range of about 1 nM (final conc. in the 5 μl assay volume).
The resulting mixture was incubated 1 h at 22° C. to allow the binding of the phosphorylated peptide to the anti-phospho(Ser/Thr)-Europium-antibody. Subsequently the amount of phosphorylated substrate was evaluated by measurement of the resonance energy transfer from the Europium-labelled anti-phospho(Ser/Thr) antibody to the Streptavidin-XLent.

human kinase Mps-1, sequence (P33981 whole entry): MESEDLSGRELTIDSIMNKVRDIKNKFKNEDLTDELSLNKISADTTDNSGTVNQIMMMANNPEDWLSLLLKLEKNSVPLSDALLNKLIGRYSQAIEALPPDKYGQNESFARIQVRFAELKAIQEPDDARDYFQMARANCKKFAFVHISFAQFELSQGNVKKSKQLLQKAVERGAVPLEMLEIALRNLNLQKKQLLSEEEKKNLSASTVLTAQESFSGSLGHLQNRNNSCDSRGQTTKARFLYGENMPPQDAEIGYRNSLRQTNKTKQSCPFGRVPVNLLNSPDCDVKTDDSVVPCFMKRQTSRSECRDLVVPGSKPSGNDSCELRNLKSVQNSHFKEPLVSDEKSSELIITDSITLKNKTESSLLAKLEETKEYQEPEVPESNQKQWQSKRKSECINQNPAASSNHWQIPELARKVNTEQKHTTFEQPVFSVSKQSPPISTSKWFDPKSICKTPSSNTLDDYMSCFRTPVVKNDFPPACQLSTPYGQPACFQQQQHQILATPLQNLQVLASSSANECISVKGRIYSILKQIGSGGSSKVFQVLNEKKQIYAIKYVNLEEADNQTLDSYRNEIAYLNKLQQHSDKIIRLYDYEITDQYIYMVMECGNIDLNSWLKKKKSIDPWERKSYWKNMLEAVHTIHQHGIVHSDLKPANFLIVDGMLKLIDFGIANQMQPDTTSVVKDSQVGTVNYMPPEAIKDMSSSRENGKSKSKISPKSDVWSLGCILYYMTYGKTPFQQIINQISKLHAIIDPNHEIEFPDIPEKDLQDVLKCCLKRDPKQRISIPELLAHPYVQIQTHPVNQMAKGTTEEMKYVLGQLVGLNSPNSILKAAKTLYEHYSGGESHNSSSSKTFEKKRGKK

Row | IC50 [pM] | SMILES
1 | 700 | Cc1cc(-c2cnc3c(NCCC(F)(F)F)cc(C(F)(F)c4cccc(F)c4)nn23)ccc1C(=O)NC1CC1 [Example 6, N-Cyclopropyl-4-{6-[difluoro(3-fluorophenyl)methyl]-8-[(3,3,3-trifluoropropyl)amino]imidazo[1,2-b]pyridazin-3-yl}-2-methylbenzamide]

system: not listed separately; test: In vitro metabolic stability in rat hepatocytes (including calculation of hepatic in vivo blood clearance); type: in vitro ADME; settings: Han Wistar, hepatocytes (freshly isolated, suspension), read-out: CL (hepatic in vivo blood clearance) (converted)
Protocol: Investigation of In Vitro Metabolic Stability in Rat Hepatocytes (Including Calculation of Hepatic In Vivo Blood Clearance (CL))
Hepatocytes from Han Wistar rats were isolated via a 2-step perfusion method. After perfusion, the liver was carefully removed from the rat: the liver capsule was opened and the hepatocytes were gently shaken out into a Petri dish with ice-cold WME. The resulting cell suspension was filtered through sterile gaze in 50 ml falcon tubes and centrifuged at 50×g for 3 min at room temperature. The cell pellet was resuspended in 30 ml WME and centrifuged through a Percoll® gradient for 2 times at 100×g. The hepatocytes were washed again with Williams' medium E (WME) and resuspended in medium containing 5% FCS. Cell viability was determined by trypan blue exclusion.
For the metabolic stability assay liver cells were distributed in WME containing 5% FCS to glass vials at a density of 1.0×10^6 vital cells/ml. The test compound was added to a final concentration of 1 μM. During incubation, the hepatocyte suspensions were continuously shaken and aliquots were taken at 2, 8, 16, 30, 45 and 90 min, to which equal volumes of cold methanol were immediately added.
Samples were frozen at −20° C. over night, after subsequently centrifuged for 15 minutes at 3000 rpm and the supernatant was analyzed with an Agilent 1200 HPLC-system with LCMS/MS detection.
The half-life of a test compound was determined from the concentration-time plot. From the half-life the intrinsic clearances were calculated. Together with the additional parameters liver blood flow, amount of liver cells in vivo and in vitro. The hepatic in vivo blood clearance (CL) and the maximal oral bioavailability (Fmax) was calculated. The following parameter values were used: Liver blood flow—4.2 L/h/kg rat; specific liver weight—32 g/kg rat body weight; liver cells in vivo—1.1×10^8 cells/g liver, liver cells in vitro—0.5×10^6 ml.

Row | SMILES | CLhep predicted at 1 μM [mL/min/kg]
2 | Cc1cc(-c2cnc3c(NCCC(F)(F)F)cc(C(F)(F)c4cccc(F)c4)nn23)ccc1C(=O)NC1CC1 [Example 6, N-Cyclopropyl-4-{6-[difluoro(3-fluorophenyl)methyl]-8-[(3,3,3-trifluoropropyl)amino]imidazo[1,2-b]pyridazin-3-yl}-2-methylbenzamide] | 21.7
3 | C=C(c1cccc(F)c1)c1cc(NCCC(F)(F)F)c2ncc(-c3ccc(C(=O)NC4CC4)c(C)c3)n2n1 [Example 24, N-cyclopropyl-4-{6-[1-(3-fluorophenyl)ethenyl]-8-[(3,3,3-trifluoropropyl)amino]imidazo[1,2-b]pyridazin-3-yl}-2-methylbenzamide] | 36.7
4 | C=C(c1ccc(OC)c(F)c1)c1cc(NCCC(F)(F)F)c2ncc(-c3ccc(C(=O)NC4CC4)c(C)c3)n2n1 [Example 1, N-Cyclopropyl-4-{6-[1-(3-fluoro-4-methoxyphenyl)ethenyl]-8-[(3,3,3-trifluoropropyl)amino]imidazo[1,2-b]pyridazin-3-yl}-2-methylbenzamide] | 43.3

Results, then the molecule that gave them:

Row | CLhep predicted at 1 μM [mL/min/kg] | SMILES
5 | 51.7 | COc1cccc(C(=O)c2cc(NCCC(F)(F)F)c3ncc(-c4ccc(C(=O)NC5CC5)c(C)c4)n3n2)c1 [Example 7, N-Cyclopropyl-4-{6-(3-methoxybenzoyl)-8-[(3,3,3-trifluoropropyl)amino]imidazo[1,2-b]pyridazin-3-yl}-2-methylbenzamide]
6 | 35 | Cc1cc(-c2cnc3c(NCCC(F)(F)F)cc(C(F)c4cccc(F)c4)nn23)ccc1C(=O)NC1CC1 (racemic) [Example 5, (RS)—N-Cyclopropyl-4-{6-[fluoro(3-fluorophenyl)methyl]-8-[(3,3,3-trifluoropropyl)amino]imidazo[1,2-b]pyridazin-3-yl}-2-methylbenzamide]
7 | 56.7 | Cc1cc(-c2cnc3c(NCCC(F)(F)F)cc(C(O)c4cccc(F)c4O)nn23)ccc1C(=O)NC1CC1 (racemic) [Example 3, (RS)—N-Cyclopropyl-4-{6-[(3-fluoro-2-hydroxyphenyl)(hydroxy)methyl]-8-[(3,3,3-trifluoropropyl)amino]imidazo[1,2-b]pyridazin-3-yl}-2-methylbenzamide]
8 | 31.7 | COc1ccc(C(F)(F)c2cc(NCCC(F)(F)F)c3ncc(-c4ccc(C(=O)NC5CC5)c(C)c4)n3n2)cc1 [Example 16, N-Cyclopropyl-4-{6-[difluoro(4-methoxyphenyl)methyl]-8-[(3,3,3-trifluoropropyl)amino]imidazo[1,2-b]pyridazin-3-yl}-2-methylbenzamide]
